The source made the active and inactive calls.
Legend:
[1] = rise of 4N DNA cells, HeLa – IC50, dose response (AID 1117351); assay type: functional, cell-based
[2] = HIV-1 AD8 envelope cell-cell fusion blockers – cherry-pick, dose response (AID 652062); assay type: functional, cell-based;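 note: luciferase signal from cell-cell fusion driven by HIV-1 clade B AD8 Env; potency is for inhibitors of fusion seen as a drop in luminescence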
[3] = blockers of HIV-1 ZM109 envelope-driven cell-cell fusion – HeLa effector, CEM target cells, luciferase, cherry-pick, dose response (AID 652058); assay type: functional, cell-based;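 note: luciferase signal from HIV-1 Env mediated cell-cell fusion of effector and target cells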
[4] = off-target signal loss in HeLa-CEM21 co-culture – HeLa F-luc CTL cells, cherry-picked, counter-screen for HIV-1 Env fusion inhibitor project, dose response (AID 652040); assay type: functional, cell-based;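 note: potency for signal decrease marking cytotoxic or nonspecific inhibition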
[5] = blockers of HIV-1 envelope-mediated cell-cell fusion – cherry-pick, dose response (AID 652057); assay type: functional, cell-based
[6] = target: T1, Nuclear receptor subfamily 0 group B member 1 (Homo sapiens, UniProt P51843); assay type: functional, cell-based;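 note: HEK293T cells transfected with SF-1 and DAX-1 plus StAR promoter luciferase reporter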
T1 sequence (P51843 whole entry): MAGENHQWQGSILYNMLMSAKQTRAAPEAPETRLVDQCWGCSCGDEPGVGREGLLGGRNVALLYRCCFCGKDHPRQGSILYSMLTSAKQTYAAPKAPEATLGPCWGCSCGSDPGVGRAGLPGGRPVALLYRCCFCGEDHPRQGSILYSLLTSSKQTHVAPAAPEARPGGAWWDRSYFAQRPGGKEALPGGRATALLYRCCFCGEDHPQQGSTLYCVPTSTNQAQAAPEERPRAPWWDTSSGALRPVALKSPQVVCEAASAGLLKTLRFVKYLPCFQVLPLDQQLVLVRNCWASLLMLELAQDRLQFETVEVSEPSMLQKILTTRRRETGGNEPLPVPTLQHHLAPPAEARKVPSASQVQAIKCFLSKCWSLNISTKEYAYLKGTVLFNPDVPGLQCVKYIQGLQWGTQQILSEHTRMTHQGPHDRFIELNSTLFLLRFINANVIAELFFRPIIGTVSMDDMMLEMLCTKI

cells [7] = assay type: functional, cell-based
Beta-galactosidase = Beta-galactosidase (Escherichia coli, UniProt Q8VNN2); experiment: Dose response counterscreen for EBI2 assay utilizing the enzyme, b-galactosidase.; assay type: functional
[8] = HGIII-sPLA2 enzyme inhibition potency – biochemical, QFRET, IC50, dose response (AID 743457);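 note: green fluorescence rise as the enzyme cleaves BODIPY PC-A2 in liposomes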
[9] = system: Streptococcus sp. 'group A'; experiment: Streptococcus pyogenes SK(-)GAS viability under kanamycin – luminescence, BacTiterGlo, confirmation, counter-screen for streptokinase expression inhibitor project, dose response (AID 1900); assay type: functional, organism-based
Streptococcus = experiment: GAS UMAA2166 growth inhibition – luminescence, BacTiterGlo, counter-screen for streptokinase expression inhibitor project, dose response (AID 1915); assay type: functional, organism-based;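 note: potency for reduction of bacterial viability or growth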
[10] = target: T2, Heat shock factor protein 1 (Mus musculus, UniProt P38532); experiment: decrease of HSF1-responsive luciferase luminescence – cell-based, NIH3T3, dose retest, confirmation (AID 2382); assay type: functional;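 note: NIH3T3 fibroblasts with HSF1-driven luciferase reporter stressed by proteasome inhibitor MG132; luminescence from HSF1-driven luciferase expression after 8 hours of MG132 stress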
T2 sequence (P38532 whole entry): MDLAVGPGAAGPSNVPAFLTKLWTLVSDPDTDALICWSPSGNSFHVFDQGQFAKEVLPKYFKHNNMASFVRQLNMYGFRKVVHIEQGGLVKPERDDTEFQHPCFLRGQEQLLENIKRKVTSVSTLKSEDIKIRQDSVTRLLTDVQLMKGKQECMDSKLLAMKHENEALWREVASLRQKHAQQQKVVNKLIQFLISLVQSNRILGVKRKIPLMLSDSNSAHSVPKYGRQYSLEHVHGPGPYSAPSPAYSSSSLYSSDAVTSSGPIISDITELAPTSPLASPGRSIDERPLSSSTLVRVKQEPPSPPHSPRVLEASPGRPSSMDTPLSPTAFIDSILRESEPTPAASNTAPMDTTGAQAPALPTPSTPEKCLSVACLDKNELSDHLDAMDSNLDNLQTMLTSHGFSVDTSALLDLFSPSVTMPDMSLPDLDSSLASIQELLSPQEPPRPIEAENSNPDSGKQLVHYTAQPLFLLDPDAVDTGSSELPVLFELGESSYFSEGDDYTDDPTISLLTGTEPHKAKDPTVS

cells [11] = assay type: functional, cell-based; remark: listed apart in the source
[12] = target: T3, Trace amine-associated receptor 1 (Homo sapiens, UniProt Q96RJ0); experiment: Fluorescence-based cell-based high throughput dose response assay to identify agonists of the human trace amine associated receptor 1 (TAAR1).; assay type: functional
T3 sequence (Q96RJ0 whole entry): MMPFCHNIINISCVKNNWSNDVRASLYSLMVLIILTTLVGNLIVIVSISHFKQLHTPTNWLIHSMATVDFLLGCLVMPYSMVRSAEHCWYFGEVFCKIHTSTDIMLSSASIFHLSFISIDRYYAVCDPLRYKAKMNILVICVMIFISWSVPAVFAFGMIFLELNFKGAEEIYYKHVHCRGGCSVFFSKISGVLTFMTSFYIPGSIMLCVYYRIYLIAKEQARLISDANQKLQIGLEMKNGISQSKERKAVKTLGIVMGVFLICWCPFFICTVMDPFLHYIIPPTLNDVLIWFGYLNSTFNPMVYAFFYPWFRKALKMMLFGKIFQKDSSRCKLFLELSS

cells [13] = assay type: functional, cell-based; remark: listed apart in the source
[14] = target: T3, Trace amine-associated receptor 1; experiment: Counterscreen for agonists of the human trace amine associated receptor 1 (hTAAR1): Fluorescence-based cell-based high throughput dose response assay to identify hTAAR1 agonist that also desensitize TAAR1 receptor response.; assay type: functional
[15] = HEK-293T viability loss after treatment – luminescence, T-cell screen hits, cytotoxicity control for TCR NF-kB inhibitor project, dose response (AID 489026); assay type: functional, cell-based;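 note: cells exposed to compound about 14 hours before the viability readout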
[16] = target: T4, COUP transcription factor 2 (Homo sapiens, UniProt P24468); experiment: Luminescence-based cell-based high throughput dose response assay to identify inhibitors of COUP-TFII (NR2F2).; assay type: functional;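 note: HEK293 cells transiently cotransfected with COUP-TFII expression vector and reporter; luciferase reporter luminescence driven by COUP-TFII from the pX2-168 reporter plasmid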
T4 sequence (P24468 whole entry): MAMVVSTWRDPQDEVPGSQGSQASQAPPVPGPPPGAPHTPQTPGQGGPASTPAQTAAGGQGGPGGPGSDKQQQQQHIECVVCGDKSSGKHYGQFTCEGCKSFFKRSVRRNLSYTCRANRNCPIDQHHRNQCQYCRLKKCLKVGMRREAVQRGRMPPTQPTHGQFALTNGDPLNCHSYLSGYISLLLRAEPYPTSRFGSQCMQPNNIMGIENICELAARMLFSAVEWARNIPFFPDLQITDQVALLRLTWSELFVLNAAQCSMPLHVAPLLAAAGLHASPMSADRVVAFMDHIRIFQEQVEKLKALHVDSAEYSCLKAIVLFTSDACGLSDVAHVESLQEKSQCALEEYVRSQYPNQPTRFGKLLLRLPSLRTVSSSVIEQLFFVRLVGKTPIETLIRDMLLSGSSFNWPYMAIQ

Estrogen receptor beta = Estrogen receptor beta (Homo sapiens, UniProt Q92731);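 note: recombinant ER-beta bound to coactivator SRC1 peptide in presence of estradiol agonist; inhibitors block coactivator peptide binding and lower the FRET signal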
cells [17] = experiment: cells
Major prion protein = Major prion protein (Homo sapiens, UniProt P04156); assay type: functional, cell-based
[18] = target: T5, Fructose-bisphosphate aldolase (Mycobacterium tuberculosis, UniProt P9WQA3); experiment: Fluorescence-based biochemical high throughput dose response assay for inhibitors of the fructose-bisphosphate aldolase (FBA) of M. tuberculosis.; assay type: functional
T5 sequence (P9WQA3 whole entry): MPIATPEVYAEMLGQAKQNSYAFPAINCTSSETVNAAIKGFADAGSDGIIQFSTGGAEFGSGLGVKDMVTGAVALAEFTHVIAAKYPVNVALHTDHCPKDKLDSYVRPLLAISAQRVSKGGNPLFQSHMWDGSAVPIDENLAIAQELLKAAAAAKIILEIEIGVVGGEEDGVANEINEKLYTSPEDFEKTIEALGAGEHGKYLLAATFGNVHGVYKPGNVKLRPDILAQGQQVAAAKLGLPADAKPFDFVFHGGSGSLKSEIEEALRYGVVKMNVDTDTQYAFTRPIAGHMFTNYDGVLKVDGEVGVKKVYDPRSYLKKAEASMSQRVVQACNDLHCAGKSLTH

[19] = viability loss in HepG2 hepatoma cells – cell-based, ATP luminescence, cherry-pick, activator set 2, cytotoxicity control, dose response (AID 1053143); assay type: functional
[20] = target: T6, Small ubiquitin-related modifier 1 (Homo sapiens, UniProt P63165); experiment: SUMO1 protein-protein binding blockers, potency – biochemical, FRET, dose response (AID 624383); assay type: functional; conditions: read-out: IC50_Mean
[21] = target: T6, Small ubiquitin-related modifier 1; experiment: SUMO1 protein interaction blockers, potency – biochemical, fluorescence polarization, uHTS hits, dose response (AID 624382); assay type: functional; conditions: read-out: IC50_Mean
[22] = activation of miR-122 Renilla sensor silencing – cell-based, Huh7 psiCHECK-miR122, Renilla luciferase, cherry-picked, dose response (AID 651956); assay type: functional;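 note: huh7 hepatoma cells stably carrying a psiCHECK-2 miR-122 sensor plasmid; renilla luciferase signal reporting endogenous miR-122 activity after 48 h compound exposure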
[23] = toxicity to human hepatoma HepG2 cells – cell-based, cherry-picked samples, cytotoxicity control, dose response (AID 1159577); assay type: functional
[24] = P. falciparum Dd2 growth inhibitors, dose response, SYBR Green, cherry-picked samples (AID 1159567); assay type: functional, cell-based

## CC[C@@]1(O)C(=O)OCc2c1cc1n(c2=O)Cc2c-1nc1ccccc1c2/C=N/OC(C)(C)C
[1]
  IC50: > 10 µM (inactive)

## CC[C@@]12C(=O)N(c3cccc(Br)c3)C(=O)N1[C@H](c1ccc(OC)cc1)[C@@H]1C(=O)N(C(C)(C)C)C(=O)[C@@H]12
[2]
  AC50: 0.627 µM (active)
[3]
  AC50: 0.581 µM (active)
[4]
  AC50: 0.509 µM (active)
[5]
  AC50: 0.326 µM (active)

## COc1ccc([C@@H]2[C@@H]3C(=O)N(C(C)(C)C)C(=O)[C@@H]3[C@]3(CC(C)C)C(=O)N(c4ccccc4)C(=O)N23)cc1
[2]
  AC50: 1.88 µM (active)
[3]
  AC50: 1.13 µM (active)
[4]
  AC50: 0.732 µM (active)
[5]
  AC50: 0.737 µM (active)

## Cc1cc(C)n2nc(C(=O)Nc3ccc4c(c3)OCCO4)nc2n1
[6]
  IC50: > 67.5 µM (inactive)
Cells [7]
  IC50: > 67.5 µM (inactive)

## Cc1ccsc1C1Nc2ccc3ncccc3c2C2=C1C(=O)CC(C)(C)C2 (centres undefined)
Beta-galactosidase
  IC50: > 80 µM (inactive)

## COc1ccc(C(=O)NC(=S)NNC(=O)c2ccco2)cc1
[8]
  IC50: > 122 µM (inactive)
[9]
  EC50: 6.65 µM (active)
Streptococcus
  EC50: 17.3 µM (active)
[10]
  EC50: > 195 µM (not active)

## O=C(CCN1CCCC1Cc1ccccc1)c1ccc2c(c1)OCCO2 (centres undefined)
Cells [11]
  EC50: > 29.9 µM (inactive)
[12]
  EC50: 0.3 µM (active)
Cells [13]
  IC50: > 29.9 µM (inactive)
[14]
  IC50: > 9.97 µM (active)

## Cc1cc(-n2c(C)cc(C(=O)CSc3ncnc4ccccc34)c2C)no1
[15]
  IC50: > 80 µM (inactive)
[16]
  IC50: 6.08 µM (active)

## CCOC(=O)c1cccc(NC(=O)c2cccs2)c1
Estrogen receptor beta
  IC50: > 50 µM (not active)

## CSc1ccc(CN2CCN(C(=O)COc3ccc(C)cc3)CC2)cc1
Beta-galactosidase
  IC50: > 80 µM (inactive)

## COc1cc(C(=O)Nc2scc(-c3ccc(C)cc3)c2C(=O)O)cc(OC)c1OC
Cells [17]
  IC50: > 138 µM (inactive)
Major prion protein
  IC50: 4.4 µM (active)

## CN(C)CCN(C(=O)c1ccc2c(c1)CCCC2)c1nc2cc3c(cc2s1)OCCO3
[6]
  IC50: > 67.5 µM (inactive)
Cells [7]
  IC50: > 67.5 µM (inactive)

## O=C1CC2(CCN(C(=O)COc3ccc(Cl)cc3)CC2)Oc2ccccc21
Beta-galactosidase
  IC50: > 80 µM (inactive)

## CCOc1ccc2oc(C(=O)OCC(=O)NC3CCCC3)c(C)c2c1
[18]
  IC50: 2.59 µM (active)

## C(=C\c1ccco1)/c1nc2ccccc2[nH]1
[19]
  AC50: 26 µM (active)

## N#Cc1nc(-c2cccs2)oc1N1CCN(Cc2ccccc2)CC1
[18]
  IC50: 0.849 µM (active)

## CC(=O)N1c2ccc(S(=O)(=O)N3CCCC(C(=O)Nc4cc(C)cc(C)c4)C3)cc2CC1C (centres undefined)
Cells [17]
  IC50: > 138 µM (inactive)
Major prion protein
  IC50: 10.4 µM (inactive)

## CC1=CC(C)(C)N=C(S)N1c1cccc2ccccc12
[8]
  IC50: > 122 µM (inactive)

## C=C(C)C(=O)Nc1ccc2c(c1)OCCOCCOCCO2
[20]
  IC50: 1.74 µM (active)
[21]
  IC50: > 66.6 µM (inactive)

## O=S(=O)(O)c1nc2ccccc2n1Cc1ccccc1
Estrogen receptor beta
  IC50: > 50 µM (not active)

## COc1ccc(C(=O)COc2ccc(C)cc2NC(C)=O)cc1
[19]
  AC50: > 52 µM (inactive)

## O=C(NCC1(N2CCCCC2)CCCCC1)c1cccc(S(=O)(=O)Nc2ccc(F)cc2)c1
[6]
  IC50: > 67.5 µM (inactive)
Cells [7]
  IC50: > 67.5 µM (inactive)

## CN(c1ccccc1)S(=O)(=O)c1ccc(C(=O)Nc2cccc(S(=O)(=O)N3CCOCC3)c2)cc1
[22]
  AC50: 59.3 µM (active)

## COc1cccc(C(=O)N[C@H](C(=O)N2CCC[C@H]2C(=O)NCCc2ccccc2Cl)c2ccccc2)c1
Cells [11]
  EC50: > 29.9 µM (inactive)
[12]
  EC50: 6.46 µM (active)
Cells [13]
  IC50: > 29.9 µM (inactive)
[14]
  IC50: 7.36 µM (active)

## N#C[C@@H]1[C@H](c2ccc(C#CCC3CCCC3)cc2)[C@H](CO)N1C(=O)c1ccccn1
[23]
  AC50: 26 µM (active)
[24]
  AC50: 3.37 µM (active)

## CCCNC(=O)N1CC2(CCN(S(=O)(=O)c3ccc(OC)cc3)CC2)c2c(n(C)c3cc(OC)ccc23)[C@@H]1CO
[23]
  AC50: > 39 µM (inactive)
[24]
  AC50: 3.11 µM (active)

## c1ccc(CN(CC2=NCCN2)c2ccccc2)cc1 [ANTAZOLINE PHOSPHATE]
Cells [11]
  EC50: > 29.9 µM (inactive)
[12]
  EC50: > 9.97 µM (active)
Cells [13]
  IC50: > 29.9 µM (inactive)
[14]
  IC50: > 29.9 µM (inactive)

— ChEMBL document CHEMBL1201862, “PubChem BioAssay data set” (2004)
